In article PMC4831007, “Discovery of a specific inhibitor of human GLUT5 by virtual screening and in vitro transport evaluation” (Scientific Reports, 2016):
Where two headings read alike, the source gives them in different places.

Tests used:
native human GLUT5 = target: T1, native human GLUT5 (Homo sapiens, UniProt P22732); assay: […]-fructose uptake in MCF7 cells, Dixon plot; type: cell-based; settings: competitive with fructose; 50 μM cytochalasin B present to block GLUT2; 3-20 mM fructose; 2 min; 22 °C
T1 construct: gene SLC2A5; native full-length transporter in MCF7 breast cancer cells
T1 sequence (P22732 1-501): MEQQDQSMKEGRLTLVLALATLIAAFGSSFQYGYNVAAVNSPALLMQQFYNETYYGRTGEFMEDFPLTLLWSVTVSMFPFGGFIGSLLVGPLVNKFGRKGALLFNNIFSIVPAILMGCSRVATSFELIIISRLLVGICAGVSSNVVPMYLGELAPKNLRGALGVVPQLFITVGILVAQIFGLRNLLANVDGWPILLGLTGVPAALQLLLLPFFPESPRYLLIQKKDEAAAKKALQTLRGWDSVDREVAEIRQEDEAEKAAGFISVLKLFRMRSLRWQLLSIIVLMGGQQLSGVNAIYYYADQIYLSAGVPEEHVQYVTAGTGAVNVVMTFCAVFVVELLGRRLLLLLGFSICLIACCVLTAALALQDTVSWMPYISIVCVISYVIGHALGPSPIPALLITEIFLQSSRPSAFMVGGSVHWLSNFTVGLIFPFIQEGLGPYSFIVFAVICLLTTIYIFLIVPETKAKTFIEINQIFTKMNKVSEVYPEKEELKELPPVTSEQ

GlcPSe = target: T2, GlcPSe (Staphylococcus epidermidis, UniProt A0A0H2VG78, F348H); assay: biochemical; settings: read-out: % inhibition at 2 mM
T2 construct: gene glcP
T2 sequence (A0A0H2VG78 whole entry F348H): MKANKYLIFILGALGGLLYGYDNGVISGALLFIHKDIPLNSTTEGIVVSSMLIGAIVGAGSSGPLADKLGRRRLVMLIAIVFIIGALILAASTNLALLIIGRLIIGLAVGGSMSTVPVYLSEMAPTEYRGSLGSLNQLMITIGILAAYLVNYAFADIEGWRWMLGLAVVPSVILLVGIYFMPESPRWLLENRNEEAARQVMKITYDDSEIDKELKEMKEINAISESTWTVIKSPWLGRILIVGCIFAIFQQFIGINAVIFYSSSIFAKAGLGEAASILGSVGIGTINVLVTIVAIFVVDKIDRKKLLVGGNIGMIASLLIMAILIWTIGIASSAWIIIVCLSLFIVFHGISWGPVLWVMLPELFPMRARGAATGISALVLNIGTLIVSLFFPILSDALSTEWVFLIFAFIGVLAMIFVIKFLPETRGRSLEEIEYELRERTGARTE

GLUT1 [1] = target: T3, GLUT1 (Homo sapiens, UniProt P11166); assay: […]-glucose entrance counter-flow in proteoliposomes; type: biochemical
T3 construct: gene SLC2A1; full length, N-terminal His6 tag, Sf21 insect cells, purified in DDM, reconstituted in proteoliposomes
T3 sequence (P11166 1-492): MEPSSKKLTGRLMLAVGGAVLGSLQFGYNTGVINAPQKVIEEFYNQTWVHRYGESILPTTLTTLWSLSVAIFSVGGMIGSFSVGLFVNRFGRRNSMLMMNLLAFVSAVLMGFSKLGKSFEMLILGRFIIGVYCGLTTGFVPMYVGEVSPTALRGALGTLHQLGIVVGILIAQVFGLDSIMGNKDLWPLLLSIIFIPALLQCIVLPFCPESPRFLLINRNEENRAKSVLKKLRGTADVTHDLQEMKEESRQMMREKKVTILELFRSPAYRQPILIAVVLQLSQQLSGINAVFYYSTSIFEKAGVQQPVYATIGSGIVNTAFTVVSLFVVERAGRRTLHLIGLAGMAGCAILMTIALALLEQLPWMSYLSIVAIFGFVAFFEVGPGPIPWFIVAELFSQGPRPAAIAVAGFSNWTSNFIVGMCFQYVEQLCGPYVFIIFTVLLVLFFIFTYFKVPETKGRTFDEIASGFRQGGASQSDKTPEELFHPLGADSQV

GLUT2 [2] = target: T4, GLUT2 (Homo sapiens, UniProt P11168); assay: […]-fructose entrance counter-flow in proteoliposomes; type: biochemical; settings: 10 μM 14C-fructose outside, 200 mM fructose inside; pH 7.5; 1 min; labelled compound
T4 construct: gene SLC2A2; full length, N-terminal His6 tag, Sf21 insect cells, purified in DDM, reconstituted in proteoliposomes
T4 sequence (P11168 1-524): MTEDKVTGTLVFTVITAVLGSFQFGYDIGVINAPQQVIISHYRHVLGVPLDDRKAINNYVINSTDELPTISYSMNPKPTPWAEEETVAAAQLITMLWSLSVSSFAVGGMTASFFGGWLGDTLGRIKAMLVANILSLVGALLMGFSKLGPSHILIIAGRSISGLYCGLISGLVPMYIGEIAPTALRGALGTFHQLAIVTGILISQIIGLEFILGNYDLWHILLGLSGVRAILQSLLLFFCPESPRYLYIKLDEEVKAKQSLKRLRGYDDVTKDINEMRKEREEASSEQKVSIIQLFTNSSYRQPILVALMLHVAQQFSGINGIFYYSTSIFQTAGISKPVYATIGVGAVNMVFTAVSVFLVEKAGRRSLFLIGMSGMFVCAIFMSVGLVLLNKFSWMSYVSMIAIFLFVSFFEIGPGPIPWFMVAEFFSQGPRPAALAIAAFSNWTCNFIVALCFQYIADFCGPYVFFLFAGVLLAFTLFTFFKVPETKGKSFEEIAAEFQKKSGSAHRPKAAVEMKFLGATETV

GLUT4 = target: T5, GLUT4 (Homo sapiens, UniProt P14672); assay: […]-glucose entrance counter-flow in proteoliposomes; type: biochemical; settings: 10 μM 14C-glucose outside, 200 mM glucose inside; pH 7.5; 1 min; labelled compound
T5 construct: gene SLC2A4; full length, N-terminal His6 tag, Sf21 insect cells, purified in DDM, reconstituted in proteoliposomes
T5 sequence (P14672 1-509): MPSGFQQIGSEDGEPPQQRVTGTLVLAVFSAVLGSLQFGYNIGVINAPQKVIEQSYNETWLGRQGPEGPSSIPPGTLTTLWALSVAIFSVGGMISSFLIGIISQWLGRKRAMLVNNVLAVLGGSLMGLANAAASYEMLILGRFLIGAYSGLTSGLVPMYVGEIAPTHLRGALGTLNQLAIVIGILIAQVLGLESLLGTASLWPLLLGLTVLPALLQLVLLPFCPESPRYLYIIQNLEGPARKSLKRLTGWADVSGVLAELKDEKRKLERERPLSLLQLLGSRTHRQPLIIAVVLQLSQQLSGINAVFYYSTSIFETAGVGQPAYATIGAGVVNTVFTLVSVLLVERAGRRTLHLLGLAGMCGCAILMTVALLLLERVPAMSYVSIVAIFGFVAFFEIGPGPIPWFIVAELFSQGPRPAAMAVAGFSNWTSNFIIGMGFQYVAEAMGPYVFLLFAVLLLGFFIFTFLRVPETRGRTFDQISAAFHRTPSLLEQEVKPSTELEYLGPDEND

GLUT2 [3] = target: T4, GLUT2; assay: as above; type: biochemical; settings: 10 μM 14C-glucose outside, 200 mM glucose inside; pH 7.5; 1 min; labelled compound
GLUT3 = target: T6, GLUT3 (Homo sapiens, UniProt P11169); assay: as above; type: biochemical; settings: 10 μM 14C-glucose outside, 200 mM glucose inside; pH 7.5; 1 min; labelled compound
T6 construct: gene SLC2A3; full length, N-terminal His6 tag, Sf21 insect cells, purified in DDM, reconstituted in proteoliposomes
T6 sequence (P11169 1-496): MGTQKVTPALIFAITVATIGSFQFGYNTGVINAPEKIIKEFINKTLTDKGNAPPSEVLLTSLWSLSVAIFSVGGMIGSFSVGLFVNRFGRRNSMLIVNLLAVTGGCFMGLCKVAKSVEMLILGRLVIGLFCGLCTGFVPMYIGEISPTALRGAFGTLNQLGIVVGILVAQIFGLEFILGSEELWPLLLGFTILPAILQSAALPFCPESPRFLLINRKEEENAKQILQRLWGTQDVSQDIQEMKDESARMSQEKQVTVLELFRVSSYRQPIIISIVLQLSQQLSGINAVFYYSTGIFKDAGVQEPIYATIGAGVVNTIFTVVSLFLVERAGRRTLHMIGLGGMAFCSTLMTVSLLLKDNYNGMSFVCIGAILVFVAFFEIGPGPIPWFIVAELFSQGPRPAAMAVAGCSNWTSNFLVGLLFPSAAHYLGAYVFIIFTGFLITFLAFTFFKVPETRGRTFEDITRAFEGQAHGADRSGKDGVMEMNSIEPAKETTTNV

GLUT1 [4] = target: T3, GLUT1; assay: as above; type: biochemical; settings: 10 μM 14C-glucose outside, 200 mM glucose inside; pH 7.5; 1 min; labelled compound

CS(=O)(=O)c1ccc(Nc2ccc3c(c2)OCO3)c([N+](=O)[O-])c1 [MSNBA, N-[4-(methylsulfonyl)-2-nitrophenyl]-1,3-benzodioxol-5-amine]
Ki (native human GLUT5): 3.2 ± 0.4 µM | inhibition at 2000 µM (GlcPSe): 75%

C=C1[C@@H](C)[C@H]2[C@H](Cc3ccccc3)NC(=O)[C@]23OC(=O)/C=C/[C@H](O)CCC[C@@H](C)C/C=C/[C@H]3[C@@H]1O [cytochalasin B]
% inhibition at 2 mM (GLUT1 [1]; 10 μM 14C-glucose outside, 200 mM glucose inside, pH 7.5, 1 min): Effect of common GLUT1 inhibitors on the relative transport activity of GLUT5, GLUT1 and GlcPSe

OCC1(O)OC[C@@H](O)[C@@H](O)[C@@H]1O (stereo partly drawn) [fructose]
14C-fructose entrance counter-flow in proteoliposomes (GLUT2 [2]): fructose transport of GLUT2 were assayed by the entrance counter-flow method in proteoliposomes

OC[C@H]1OC(O)[C@H](O)[C@@H](O)[C@@H]1O (stereo partly drawn) [glucose]
14C-glucose entrance counter-flow in proteoliposomes (GLUT4): Glucose transport of GLUT1, GLUT2, GLUT3 and GLUT4 | 14C-glucose entrance counter-flow in proteoliposomes (GLUT2 [3]): Glucose transport of GLUT1, GLUT2, GLUT3 and GLUT4 | 14C-glucose entrance counter-flow in proteoliposomes (GLUT3): Glucose transport of GLUT1, GLUT2, GLUT3 and GLUT4 | 14C-glucose entrance counter-flow in proteoliposomes (GLUT1 [4]): Glucose transport of GLUT1, GLUT2, GLUT3 and GLUT4

O=C(CCc1ccc(O)cc1)c1c(O)cc(O)cc1O [phloretin]
% inhibition at 2 mM (GLUT1 [1]): Effect of common GLUT1 inhibitors on the relative transport activity of GLUT5, GLUT1 and GlcPSe
